The test system of experiment [1] is KCL-22 (BCR-ABL). In words: In vitro growth inhibition of KCL-22 tumor cells (MTT/CCK8). The conditions noted are these: Homo sapiens, KCL-22; in vitro growth inhibition (or induction of apoptosis), cells cultured 3 to 5 days, MTT (CCK8); read-out: IC50 KCL-22 (BCR-ABL). The class given is cell-based, Human.
In experiment [2] the test system is MDA-MB-453. Description: In vitro growth inhibition of MDA-MB-453 cells. The format is cell-based. The conditions noted are these: Homo sapiens, PI3KCA H1047R, FGFR4+++/Y367C. As to the method:
(§1) Adherent cells were digested with 0.25% trypsin-EDTA (Gibco). Suspension culture cells were collected by centrifugation (1700 rpm, 3 minutes). The supernatant was discarded and the cells were counted. According to each cell growth cycle, different concentrations of cells were prepared (5˜10×10^4 cells per ml), and inoculated to 96-well plates (Corning), with 100 μl per well, and incubated overnight at 37° C., 5% CO2. The next day, the test compound was added to the cultured cells (2 wells in parallel). The final concentration of the solvent was less than 1/1,000. The cells were further cultured for 3 to 5 days and assayed by MTT.
(§2) The MTT test reagent was a Dojindo CCK8 kit and the Microplate Reader was a THERMO […] FC instrument.
(§3) The adherent cells were taken out from the cell culture medium, and immediately added to a freshly prepared complete medium containing 10% CCK8 (5% FBS), 100 ul per hole. The suspended cells were directly added to a CCK8 reagent until reaching a final concentration of 10% and cultured for 1 to 4 hours. When a dark yellow color could be observed in the solvent control wells, the absorbance value at OD450 nm was measured and the cell growth rate was calculated according to the following formula: Cell Growth Rate (%)=100×(T−T0)/(C−T0)
(§4) T=optical density of drug-treated cell wells−optical density of blank control wells; T0=optical density of cell wells before drug treatment−optical density of blank control wells; C=optical density of solvent control wells−optical density of blank control wells. […] The experiments were repeated 1 to 3 times and a statistical analysis of data was conducted.
(§5) Mutations in the FGFR1-4 gene often occur in different types of cancer patients. In order to test the growth inhibition activity of the present compound against tumor cells expressing different FGFR variants, tumor cell lines expressing representative FGFR1-4 were selected for further determining the activity of compounds 25, 66, 38 and 95 of the present invention. BGJ398, a selective inhibitor of FGFR1-4, was used as the control compound. The specific test method is the same as test example 1.

Experiment [3] concerns A375. In words: In vitro growth inhibition of A375 cells. The format is cell-based. The conditions noted are these: Homo sapiens, A-375, BRAF V600E, FGFR2 mutant. As to the method: as §1, §2, §3, §4, §5
Experiment [4] relates to PLC/PRF/5. In words: In vitro growth inhibition of PLC/PRF/5 cells. The format is cell-based. The conditions noted are these: Homo sapiens, FGFR3+++, FGFR4 +++. As to the method: as §1, §2, §3, §4, §5
Experiment [5] has as its system RS4:11. In words: In vitro growth inhibition of FLT3 wild type overexpressing cells RS4:11. The format is cell-based. The conditions noted are these: Homo sapiens, cells over expressing FLT3 wild-type. The procedure: as §1, §2, §3, §4
(§6) The present compounds which has a high growth inhibition activity on tumor cells positive expressing FLT3-ITD were selected for the determination of IC50 concentration on FLT3 wild tyoverexpressing cells RS4:11 and FLT3 wild-type normal expressing cells Jurkat. The specific test method is the same as that of test example 1.

Experiment [6] has as its system Jurkat. In words: In vitro growth inhibition of FLT3 wild-type normal expressing cells Jurkat. The format is cell-based. The conditions noted are these: Homo sapiens, cells normally expressing FLT3 wild-type. The procedure:
as §1, §2, §3, §4, §6

Experiment [7] relates to human non-small cell lung cancer cell line NCI-H1299 (NRAS Q61K mutation). Description: Growth inhibition in combination with MEK1/2 inhibitor Trametinib, NCI-H1299 (NRAS Q61K mutation). The class given is cell-based. Conditions: 5 days. The procedure: Test Example 5 Synergistic Inhibition Effect of the Present Compounds in Combination with MEK1/2 Inhibitor on the Growth of RAS Mutant Tumor Cells In Vitro
The cell culture, drug treatment and MTT assay of human intestinal cancer cell line HCT116 (KRAS G13D mutation) and human non-small cell lung cancer cell line NCI-H1299 (NRAS Q61K mutation) were performed according to the method of test example 1. Cells were treated with the MEK1/2 inhibitor Trametinib at 25 nM, 2.5 nM and 0.25 nM alone or in combination with compound 66 or 125 of the present invention (5 days).

Usually IC50 stands for the concentration needed to halve the response being measured. On to `CN1CCN(CCCOc2cc3nccc(Oc4ccc(NC(=O)Nc5cc(C(C)(C)C)n[nH]5)c(Cl)c4Cl)c3cc2C(N)=O)CC1` [Compound 95], for which the IC50 stood at 7.03 nM in experiment [1], 49.2 nM in experiment [2], 62.1 nM in experiment [3] and 2.37 nM in experiment [4].
Broadly, the inhibition is the change of the read-out against control, counted positive when it falls. As to `COCCOc1cc2nccc(Oc3ccc(NC(=O)Nc4cc(C(C)(C)C)n[nH]4)c(Cl)c3)c2cc1NC(C)=O` [Compound 66, N-[4-{4-[3-(5-tert-butyl-2H-pyrazol-3-yl)-ureido]-3-chloro-phenoxy}-7-(2-methoxy-ethoxy)-quinolin-6-yl]-acetamide], the IC50 in experiment [1] is 3.12 nM; in experiment [2], 19.3 nM; in experiment [3], 31.5 nM; in experiment [4], 2.67 nM; in experiment [5], 523 nM; in experiment [6], 462 nM. The inhibition at 0.0078 µM in experiment [7] (Homo sapiens, NCI-H1299, 120 h, compound 7.8 nM alone (solvent instead of Trametinib), read-out: cell growth inhibition (percentage)) was determined as 1.39%. In addition, in experiment [7] (Homo sapiens, NCI-H1299, 120 h, compound 15.6 nM alone (solvent instead of Trametinib), read-out: cell growth inhibition (percentage)), the inhibition at 0.0156 µM came to 4.59%. Moreover, the “cell growth inhibition (percentage)” value in experiment [7] (compound 7.8 nM + Trametinib 0.25 nM) is on record as 11.67%; in experiment [7] (compound 7.8 nM + Trametinib 2.5 nM), 20.73%; in experiment [7] (compound 7.8 nM + Trametinib 25 nM), 37.88%; in experiment [7] (compound 15.6 nM + Trametinib 0.25 nM), 16.82%; in experiment [7] (compound 15.6 nM + Trametinib 2.5 nM), 26.10%; in experiment [7] (compound 15.6 nM + Trametinib 25 nM), 42.52%.
With `COc1cc2nccc(Oc3ccc(NC(=O)Nc4cc(C(C)(C)C)nn4C)c(Cl)c3Cl)c2cc1C(N)=O` [Compound 38, 4-{4-[3-(5-tert-butyl-2-methyl-2H-pyrazol-3-yl)-ureido]-2,3-dichloro-phenoxy}-7-methoxyquinolin-6-carboxamide], the IC50 is 0.481 nM in experiment [1]; 19.8 nM in experiment [2]; 16.7 nM in experiment [3]; 2.08 nM in experiment [4]; 65.8 nM in experiment [5]; 202 nM in experiment [6].

The record behind these values is patent US10800741B2 (ANCUREALL PHARMACEUTICAL (SHANGHAI) CO., LTD., priority 2017, dated 2020).
